In this experiment the target is T1, Human TRPC6 (Homo sapiens, UniProt Q9Y210).
T1 construct: expressed in transfected cells
T1 sequence (Q9Y210 1-931): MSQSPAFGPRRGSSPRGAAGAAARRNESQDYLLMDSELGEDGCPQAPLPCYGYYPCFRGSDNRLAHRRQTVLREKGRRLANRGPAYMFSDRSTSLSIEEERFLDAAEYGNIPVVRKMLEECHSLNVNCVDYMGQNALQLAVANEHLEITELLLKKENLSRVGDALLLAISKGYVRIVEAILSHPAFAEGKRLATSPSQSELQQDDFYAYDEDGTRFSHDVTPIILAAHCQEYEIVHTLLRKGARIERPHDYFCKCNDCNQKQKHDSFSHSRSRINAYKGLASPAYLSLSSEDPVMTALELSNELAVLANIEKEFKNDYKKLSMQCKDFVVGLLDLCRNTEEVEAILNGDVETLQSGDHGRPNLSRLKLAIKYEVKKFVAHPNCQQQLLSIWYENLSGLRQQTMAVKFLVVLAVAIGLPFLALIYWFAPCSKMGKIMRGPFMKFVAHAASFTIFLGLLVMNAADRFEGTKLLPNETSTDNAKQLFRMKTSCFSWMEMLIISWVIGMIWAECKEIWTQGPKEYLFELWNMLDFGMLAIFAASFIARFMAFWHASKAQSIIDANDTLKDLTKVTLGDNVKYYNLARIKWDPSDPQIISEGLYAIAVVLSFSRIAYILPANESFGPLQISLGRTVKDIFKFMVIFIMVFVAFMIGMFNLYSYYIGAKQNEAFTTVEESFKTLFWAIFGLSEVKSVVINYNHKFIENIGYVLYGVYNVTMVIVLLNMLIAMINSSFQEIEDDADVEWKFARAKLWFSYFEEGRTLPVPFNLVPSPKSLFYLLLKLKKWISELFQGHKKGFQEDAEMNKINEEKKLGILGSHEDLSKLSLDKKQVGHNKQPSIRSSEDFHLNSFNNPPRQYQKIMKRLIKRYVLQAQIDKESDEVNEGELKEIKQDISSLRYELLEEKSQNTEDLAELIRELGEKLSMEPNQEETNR
The experiment can be described thus: Evaluation of TRPC6 channel inhibitory activity (1), FLIPR Calcium 5 Assay Kit, OAG stimulation (Compound Nos. 1-1293). It counts as cell-based. The settings on record: Human TRPC6 stably-expressing cells, OAG 30 μM, FLIPR Calcium 5 Assay Kit; read-out: Inhibitory activity (pIC50 class) (converted). The method, then: Evaluation of TRPC6 Channel Inhibitory Activity (1) (Compound Nos. 1-1293)
In order to investigate TRPC6 channel inhibitory activity of the compounds, evaluation was conducted using FLIPR® Calcium 5 Assay Kit (Molecular Devices) in accordance with the following procedure. Human TRPC6 stably-expressing cells were seeded in a 384-well black clear bottom plate at a density of 5×10^3/well and cultured in an incubator at 37° C. 5% CO2 for 24 hours. Thereafter, 25 μL of a Non Wash Dye Solution, prepared using Component A, 20 mM HEPES-HBSS and 250 mM probenecid, all of which are included in the kit, was added to each well, and the plate was incubated for 30 minutes. A volume of 12.5 μL of a compound solution was added into each well while the fluorescence was measured with FLIPR tetra. After 20 minutes, 12.5 μL of a 1-oleoyl-2-acetyl glycerol (OAG) solution was added at a final concentration of 30 μM. The difference between the minimum fluorescence intensity before the addition of the compound and the maximum fluorescence intensity after the addition of OAG was defined as a signal. An inhibition rate was calculated, assuming the average signal of wells without the compound as the inhibition rate of 0% and the average signal of wells without the compound and OAG as the inhibition rate of 100%. The calculated inhibition rate was analyzed by a four-parameter logistic regression to quantify the inhibition rate in the logarithm of the inverse of the effective concentration which gives a 50% inhibition rate (pIC50). The intensity was expressed by the following symbols (+, ++, +++).
Consider `CN(C)C(=O)C(N)c1ccc(-c2ccc(C#N)cc2Oc2cc(C3CC3)nn2C)nc1` (stereo not drawn) [compound 489, 2-amino-2-[6-[4-cyano-2-(5-cyclopropyl-2-methylpyrazol-3-yl)oxyphenyl]pyridin-3-yl]-N,N-dimethylacetamide], for which the IC50 was more than 1 µM.

`CCc1cc(C(=O)c2cc(C#N)ccc2-c2ncc(CN)cn2)n(C)n1` [compound 1026, 4-[5-(aminomethyl)pyrimidin-2-yl]-3-(5-ethyl-2-methylpyrazole-3-carbonyl)benzonitrile]: the IC50 was less than 0.01 µM.

With `Cc1nc(Oc2cc(C#N)ccc2-c2ccc(CCN)cc2)cc(N2CCC(F)(F)CC2)n1` [Compound 18, 4-[4-(2-aminoethyl)phenyl]-3-[6-(4,4-difluoropiperidin-1-yl)-2-methylpyrimidin-4-yl]oxybenzonitrile], the IC50 is 0.01 to 1 µM.

In the case of `Cc1cc(Oc2cc(F)ccc2-c2ncc(CCN)cn2)cc(N2CCOCC2)n1` [compound 978, 2-[2-[4-fluoro-2-(2-methyl-6-morpholin-4-ylpyridin-4-yl)oxyphenyl]pyrimidin-5-yl]ethanamine], the IC50 was less than 0.01 µM.

As to `Cc1nc(Oc2cc(C#N)ccc2-n2cc([C@H](O)CN)cn2)cc(-c2ccccc2C)n1` [compound 354, 4-[4-[(1S)-2-amino-1-hydroxyethyl]pyrazol-1-yl]-3-[2-methyl-6-(2-methylphenyl)pyrimidin-4-yl]oxybenzonitrile], the IC50 was 0.01 to 1 µM.

On to `N#Cc1ccc(-c2ncc([C@H](O)CN)cn2)c(Oc2cc(C3CC3)nn2CC(F)(F)F)c1` [compound 411, 4-[5-[(1S)-2-amino-1-hydroxyethyl]pyrimidin-2-yl]-3-[5-cyclopropyl-2-(2,2,2-trifluoroethyl)pyrazol-3-yl]oxybenzonitrile], for which the IC50 is 0.01 to 1 µM.

For `CN(CC(F)F)c1cc(Oc2cc(C#N)ccc2-c2ncc(CCN)cn2)n(C)n1` [compound 786, 4-[5-(2-aminoethyl)pyrimidin-2-yl]-3-[5-[2,2-difluoroethyl(methyl)amino]-2-methylpyrazol-3-yl]oxybenzonitrile], the IC50 was less than 0.01 µM.

Turning to `Cn1nc(C2CC2)cc1Oc1cc(C#N)ccc1-c1cccc(N)n1` [compound 451, 4-(6-aminopyridin-2-yl)-3-(5-cyclopropyl-2-methylpyrazol-3-yl)oxybenzonitrile], the IC50 is more than 1 µM.

For `Cc1cc(Oc2cc(C#N)ccc2-c2ccc(C(N)C(N)=O)cn2)cc(N2CCOCC2)n1` (stereo not drawn) [compound 418, 2-amino-2-[6-[4-cyano-2-(2-methyl-6-morpholin-4-ylpyridin-4-yl)oxyphenyl]pyridin-3-yl]acetamide], the IC50 is 0.01 to 1 µM.

In the case of `CN(C)c1cc(Cc2cc(C#N)ccc2-c2ncc(CCN)cn2)n(C)n1` [compound 1216, 4-[5-(2-aminoethyl)pyrimidin-2-yl]-3-[[5-(dimethylamino)-2-methylpyrazol-3-yl]methyl]benzonitrile], the IC50 was 0.01 to 1 µM.

Take `Cc1nc(C2CCOCC2)cn1Cc1cc(C#N)ccc1-c1ccc(CN)cn1` [compound 1163, 4-[5-(aminomethyl)pyridin-2-yl]-3-[[2-methyl-4-(oxan-4-yl)imidazol-1-yl]methyl]benzonitrile]: the IC50 is 0.01 to 1 µM.

As to `Cc1nc(Oc2cc(C#N)ccc2-n2cc([C@@H](O)CN)cn2)cc(OC2CCC2)n1` [Compound 269, 4-[4-[(1R)-2-amino-1-hydroxyethyl]pyrazol-1-yl]-3-(6-cyclobutyloxy-2-methylpyrimidin-4-yl)oxybenzonitrile], the IC50 is 0.01 to 1 µM.

On to `Cc1nc(Oc2cc(C#N)ccc2-c2ccc(CCN)cc2)cc(-c2cscn2)n1` [Compound 30, 4-[4-(2-aminoethyl)phenyl]-3-[2-methyl-6-(1,3-thiazol-4-yl)pyrimidin-4-yl]oxybenzonitrile], for which the IC50 is less than 0.01 µM.

Take `Cc1nc(NC(C)(C)C)cc(Oc2cc(C#N)ccc2-c2ncc(CN)cn2)n1` [compound 637, 4-[5-(aminomethyl)pyrimidin-2-yl]-3-[6-(tert-butylamino)-2-methylpyrimidin-4-yl]oxybenzonitrile]: the IC50 was less than 0.01 µM.

For the compound `Cc1nc(Oc2cc(C#N)ccc2-c2ncc(CCN)cn2)cc(-c2nccs2)n1` [compound 598, 4-[5-(2-aminoethyl)pyrimidin-2-yl]-3-[2-methyl-6-(1,3-thiazol-2-yl)pyrimidin-4-yl]oxybenzonitrile], the IC50 is 0.01 to 1 µM.

Turning to `CC(C)Cn1cc(Oc2cc(C#N)ccc2-c2ncc(CN)cn2)cn1` [compound 908, 4-[5-(aminomethyl)pyrimidin-2-yl]-3-[1-(2-methylpropyl)pyrazol-4-yl]oxybenzonitrile], the IC50 was less than 0.01 µM.

On to `Cc1nc(Oc2cc(C#N)ccc2-c2ccc(CCN)cc2)cc(N2CCCC2)n1` [Compound 25, 4-[4-(2-aminoethyl)phenyl]-3-(2-methyl-6-pyrrolidin-1-ylpyrimidin-4-yl)oxybenzonitrile], for which the IC50 was less than 0.01 µM.

Take `Cc1nc(Oc2cc(C#N)ccc2-c2ncc(CCN)cn2)cc(N(C)C2COC2)n1` [compound 879, 4-[5-(2-aminoethyl)pyrimidm-2-yl]-3-[2-methyl-6-[methyl(oxetan-3-yl)amino]pyrimidin-4-yl]oxybenzonitrile]: the IC50 is more than 1 µM.

On to `Cc1cc(Oc2cc(C#N)ccc2-c2ccc(CN)n3ccnc23)cc(N2CCOCC2)n1` [compound 494, 4-[5-(aminomethyl)imidazo[1,2-a]pyridin-8-yl]-3-(2-methyl-6-morpholin-4-ylpyridin-4-yl)oxybenzonitrile], for which the IC50 is 0.01 to 1 µM.

On to `Cc1cc(Oc2cc(C#N)ccc2-c2ncc([C@H](O)CN)cn2)cc(-c2ccccn2)n1` [compound 688, 4-[5-[(1S)-2-amino-1-hydroxyethyl]pyrimidin-2-yl]-3-(2-methyl-6-pyridin-2-ylpyridin-4-yl)oxybenzonitrile], for which the IC50 was 0.01 to 1 µM.

On to `Cn1nc(-c2ccccc2)cc1Oc1cc(C#N)ccc1-c1ccc(CCCN)cc1` [compound 579, 4-[4-(3-aminopropyl)phenyl]-3-(2-methyl-5-phenylpyrazol-3-yl)oxybenzonitrile], for which the IC50 is 0.01 to 1 µM.

Regarding `COC(C)(C)CN(C)c1cc(Oc2cc(C#N)ccc2-c2ncc(CCN)cn2)n(C)n1` [compound 868, 4-[5-(2-aminoethyl)pyrimidin-2-yl]-3-[5-[(2-methoxy-2-methylpropyl)-methylamino]-2-methylpyrazol-3-yl]oxybenzonitrile], the IC50 was 0.01 to 1 µM.

As to `Cc1nc(Oc2cc(C#N)ccc2-c2ccc(CCN)cc2)cc(-c2ccnn2C)n1` [Compound 20, 4-[4-(2-aminoethyl)phenyl]-3-[2-methyl-6-(2-methylpyrazol-3-yl)pyrimidin-4-yl]oxybenzonitrile], the IC50 was 0.01 to 1 µM.

`Cn1nc(N2CCCCC2)cc1Oc1cc(C#N)ccc1-c1ncc(CCN)cn1` [compound 627, 4-[5-(2-aminoethyl)pyrimidin-2-yl]-3-(2-methyl-5-piperidin-1-ylpyrazol-3-yl)oxybenzonitrile]: the IC50 is less than 0.01 µM.

Turning to `CC(C)c1cc(Oc2cc(F)ccc2-c2ncc(CN)cn2)n(C)n1` [compound 1012, [2-[4-fluoro-2-(2-methyl-5-propan-2-ylpyrazol-3-yl)oxyphenyl]pyrimidin-5-yl]methanamine], the IC50 was less than 0.01 µM.

For `CCCNc1cc(Oc2cc(C#N)ccc2-c2ncc(CN)cn2)nc(C)n1` [compound 632, 4-[5-(aminomethyl)pyrimidin-2-yl]-3-[2-methyl-6-(propylamino)pyrimidin-4-yl]oxybenzonitrile], the IC50 is 0.01 to 1 µM.

Consider `Cn1nc(C(F)(F)F)cc1Oc1cc(C#N)ccc1-n1cc(N2CCNCC2=O)cn1` [Compound 220, 3-[2-methyl-5-(trifluoromethyl)pyrazol-3-yl]oxy-4-[4-(2-oxopiperazin-1-yl)pyrazol-1-yl]benzonitrile], for which the IC50 is more than 1 µM.

The values above are taken from US20230167073A1 (Teijin Pharma Limited, priority 2020, published 2023).
